In paper PMC3871529, “At a Supra-Physiological Concentration, Human Sexual Hormones Act as Quorum-Sensing Inhibitors” (PLoS ONE, 2013):
Where two headings read alike, the source gives them in different places.

Legend:
[1] = test system: A. tumefaciens NT1(pZLR4) traG-lacZ reporter fusion; assay: QSI activity on A. tumefaciens AHL-bioindicator (traG-lacZ β-galactosidase); format: cell-based, Agrobacterium tumefaciens; details: for QSI hit in library screening: second screening: compounds at 5 µg/ml, C8-HSL 10 nM, A. tumefaciens biosensor
Protocol: Two bacterial QS-signal biosensors were used. Chromobacterium violaceum CV026 [41] was grown in Luria-Bertani modified (LBm) medium, in which the NaCl concentration was 5 g/l instead of 10 g/l. Agrobacterium tumefaciens NT1(pZLR4) was grown in AB minimal medium supplemented with mannitol (0.2%). After supplementation with appropriate AHL, each of the QS-biosensors expresses a reporting activity, which is the production of the pigment violacein in C. violaceum CV026 and that of β-galactosidase from the transcriptional fusion traG::lacZ in A. tumefaciens NT1(pZLR4).
When the screening was performed, the chemical library of the Institut de Chimie des Substances Naturelles (ICSN, Gif-sur-Yvette, France) contained more than 3500 synthetic and natural compounds, which were individually dissolved in dimethylsulfoxide (DMSO) at 1mg/ml and stored in 96 microwell plates. A first screening was performed by mixing biosensor CV026 with the AHL hexanoylhomoserine lactone (C6-HSL) at 0.5 µM and the tested compounds at 50 µg/ml. Final volume was adjusted to 100 µl with a synthetic medium (10% LBm and 0.4% sucrose). After 24 hours of incubation at 30°C, the presence or absence of violacein pigment was quoted by visual reading. […] Final volume was adjusted to 100 µl by the addition of AB minimal medium supplemented with mannitol (0.2%) and TY medium (10%). After 4 hours of incubation at 30°C, β-galactosidase activity was measured in A. tumefaciens cultures as previously described. In the two screenings, 4-nitropyridine-N-oxide (4-NPO) was used as a QSI reference. […]

[2] = test system: Agrobacterium biosensor cells; assay: Minimal bactericidal concentration (MBC); format: cell-based, Agrobacterium tumefaciens; details: 99.9% reduction of 10^5 CFU/ml after 36 h at 30°C
Protocol: Aside from the effect of QSI on QS regulation, the toxicity of these compounds was tested on bacterial cells by measuring two parameters: the minimal inhibitory concentration (MIC) and minimal bactericidal concentration (MBC). MIC, which is the lowest concentration of QSI (µg/ml) inhibiting any visible culture after 36 h of incubation at 30°C, was estimated by culturing 10^5 CFU/ml of the Agrobacterium biosensor cells in the presence of different concentrations of the QSI. MBC, which is the lowest concentration of QSI (µg/ml) that results in a 99.9% reduction of the initial bacterial population (10^5 CFU/ml) after 36 h of incubation at 30°C in the presence of different concentrations of QSI, was estimated by plating 100 µL of the Agrobacterium cultures on agar LBm plates. After an incubation of 48 h at 30°C, CFU were counted and the MBC values were calculated.

P. aeruginosa = assay: Growth kinetics of P. aeruginosa in the presence of QSIs; format: cell-based, Pseudomonas aeruginosa; details: QSI at 0.5 mg/ml, OD600 and CFU at 8 and 18 hour
Protocol: Figure 5 QSIs modulated QS-signal accumulation in P. aeruginosa. Growth kinetics (n = 6) of P. aeruginosa was measured (OD600) in the presence of the QSIs (estradiol, estrone, estriol, hordenine and 4-NPO) at 0.5 mg/ml using DMSO as a negative control. Cell counts were assessed (CFU/ml) at 8- and 18-hour, and C4-HSL and OC12-HSL concentration (µM) were determined in the bacterial cultures at 18-hour. Statistically different values (Student's t test with α = 0.01) are noted by asterisks.
QS gene transcription in P. aeruginosa PAO1 was monitored using PAO1 strains carrying various gene promoters fused to a lacZ reporter gene, as described in Vandeputte et al., 2010 and Table 1. PAO1 reporter strains were prepared according to Vandeputte et al.. Briefly, 18-hours-old liquid cultures (50 µl) were diluted in order to obtain a starting OD600 nm comprised between 0.02 and 0.03 in fresh LB medium supplemented with 50 mM MOPS pH 7.0 (1 ml), carbenicillin (300 µg/ml) and 10 µl of the QSIs to be tested (OD were measured using a SpectraMax M2 device from Molecular Devices). Test and control QSIs were diluted in 100% DMSO (resulting after addition to the growth medium in a 1% final concentration of DMSO). Cultures were incubated for 18 hours at 37°C with agitation. After incubation, cell densities were assessed spectrophotometrically (OD600 nm) and β-galactosidase assays were performed using the substrate o-nitrophenyl-β-D-galactopyranoside as described previously, [29]. Promoterless-lacZ fusions were used as controls. AHLs were quantified as described in Vandeputte et al.. All tests were performed in quintuplicates and three biological repetitions. The statistical significance of each test was evaluated by conducting Student's t tests and two-way ANOVA combined with the Tukey post-analysis test using the GraphPad Prism software and p values≤0.01 were considered significant.

Molecule	QSI hit in library screening [1]	IC50 ([1]; β-galactosidase activity of Agrobacterium biosensor in presence of AHL (C8-HSL 10 nM), QSI 1.5 to 100 µg/ml)	MBC [2]	effect on growth of P. aeruginosa (P. aeruginosa)	inhibition at 100 µg/mL ([1]; Agrobacterium tumefaciens, read-out: inhibition (%) at 100 µg/ml)	MBC ([2]; Agrobacterium, read-out: MBC)
3-Hydroxy-13-methyl-6,7,8,9,11,12,13,14,15,17-decahydro-cyclopenta[a] phenanthren-16-one [Compound 729, reference compound]	hits	75 µg/mL	>100 µg/mL	did not affect the growth	–	–
CN(C)CCc1ccc(O)cc1 [Compound 3499, hordenine]	hits	–	–	slightly delayed the growth	19%	> 100 µg/mL
C[C@]12CC[C@@H]3c4ccc(O)cc4CC[C@H]3[C@@H]1C[C@@H](O)[C@@H]2O [Estriol, estriol]	–	–	–	did not affect the growth	–	> 100 µg/mL
